ChEMBL document CHEMBL5303573, “Mapping human microbiome drug metabolism by gut bacteria and their genes” (Nature, 2019)
Non-standard residues stand in square brackets, D forms with d. Residues, ends and D or L forms follow the SMILES beside them. pGlu = O=C1CC[C@@H](C(=O)O)N1; Thz = O=C(O)[C@@H]1CSCN1

What was measured:
[1] = bacteroides intestinalis, 12 h, 2 µM
Description: The drug is tested on Bacteroides intestinalis strain: DSM17393 for biotransformation. The drug concentrations were measured before and after a 12-h incubation by liquid-chromatography-coupled mass spectrometry (LC–MS)

[2] = The drug is tested on Clostridium asparagiforme strain: DSM15981 for biotransformation. The drug concentrations were measured before and after a 12-h incubation by liquid-chromatography-coupled mass spectrometry (LC–MS); assay type: ADME; design: dose 2 uM, timepoint 0 vs 12 hours; details: enterocloster asparagiformis, 2 µM
[3] = The drug is tested on Providencia stuartii strain: ATCC25827 for biotransformation. The drug concentrations were measured before and after a 12-h incubation by liquid-chromatography-coupled mass spectrometry (LC–MS); details: 2 µM
[4] = The drug is tested on Eubacterium rectale strain: ATCC33656 for biotransformation. The drug concentrations were measured before and after a 12-h incubation by liquid-chromatography-coupled mass spectrometry (LC–MS); details: agathobacter rectalis, 2 µM
[5] = parabacteroides distasonis, 12 h, 2 µM
Description: The drug is tested on Parabacteroides distasonis strain: ATCC8503 for biotransformation. The drug concentrations were measured before and after a 12-h incubation by liquid-chromatography-coupled mass spectrometry (LC–MS)

[6] = The drug is tested on Providencia rettgeri strain: DSM1131 for biotransformation. The drug concentrations were measured before and after a 12-h incubation by liquid-chromatography-coupled mass spectrometry (LC–MS); assay type: ADME; design: dose 2 uM, timepoint 0 vs 12 hours; details: 2 µM
[7] = The drug is tested on Bacteroides pectinophilus strain: ATCC43243 for biotransformation. The drug concentrations were measured before and after a 12-h incubation by liquid-chromatography-coupled mass spectrometry (LC–MS); details: 2 µM
[8] = The drug is tested on Coprococcus comes strain: ATCC27758 for biotransformation. The drug concentrations were measured before and after a 12-h incubation by liquid-chromatography-coupled mass spectrometry (LC–MS); assay type: ADME; design: dose 2 uM, timepoint 0 vs 12 hours; details: 2 µM
[9] = The drug is tested on Bifidobacterium longum subsp. Infantis strain: CCUG52486 for biotransformation. The drug concentrations were measured before and after a 12-h incubation by liquid-chromatography-coupled mass spectrometry (LC–MS); details: 2 µM
[10] = The drug is tested on Bacteroides uniformis strain: ATCC8492 for biotransformation. The drug concentrations were measured before and after a 12-h incubation by liquid-chromatography-coupled mass spectrometry (LC–MS); details: 2 µM
[11] = roseburia intestinalis, 12 h, 2 µM
Description: The drug is tested on Roseburia intestinalis strain: L1-82 for biotransformation. The drug concentrations were measured before and after a 12-h incubation by liquid-chromatography-coupled mass spectrometry (LC–MS)

[12] = The drug is tested on Anaerotruncus colihominis strain: DSM17241 for biotransformation. The drug concentrations were measured before and after a 12-h incubation by liquid-chromatography-coupled mass spectrometry (LC–MS); details: 2 µM
[13] = bifidobacterium adolescentis, 12 h, 2 µM
Description: The drug is tested on Bifidobacterium adolescentis strain: ATCC 15703 for biotransformation. The drug concentrations were measured before and after a 12-h incubation by liquid-chromatography-coupled mass spectrometry (LC–MS)

[14] = enterocloster bolteae, 12 h, 2 µM
Description: The drug is tested on Clostridium bolteae strain: ATCCBAA-613 for biotransformation. The drug concentrations were measured before and after a 12-h incubation by liquid-chromatography-coupled mass spectrometry (LC–MS)

[15] = The drug is tested on Clostridium sp. strain: fecal isolate for biotransformation. The drug concentrations were measured before and after a 12-h incubation by liquid-chromatography-coupled mass spectrometry (LC–MS); details: 2 µM
[16] = The drug is tested on Eubacterium hallii strain: DSM3353 for biotransformation. The drug concentrations were measured before and after a 12-h incubation by liquid-chromatography-coupled mass spectrometry (LC–MS); details: anaerobutyricum hallii, 2 µM
[17] = akkermansia muciniphila, 12 h, 2 µM
Description: The drug is tested on Akkermansia muciniphila strain: ATCC BAA-835 for biotransformation. The drug concentrations were measured before and after a 12-h incubation by liquid-chromatography-coupled mass spectrometry (LC–MS)

[18] = bacteroides eggerthii, 12 h, 2 µM
Description: The drug is tested on Bacteroides eggerthii strain: DSM20697 for biotransformation. The drug concentrations were measured before and after a 12-h incubation by liquid-chromatography-coupled mass spectrometry (LC–MS)

[19] = The drug is tested on Bifidobacterium ruminantium strain: fecal isolate for biotransformation. The drug concentrations were measured before and after a 12-h incubation by liquid-chromatography-coupled mass spectrometry (LC–MS); details: 2 µM
[20] = segatella copri, 12 h, 2 µM
Description: The drug is tested on Prevotella copri strain: DSM18205 for biotransformation. The drug concentrations were measured before and after a 12-h incubation by liquid-chromatography-coupled mass spectrometry (LC–MS)

SMILES | Bacterial Biotransformation [1] | Bacterial Biotransformation [2] | Bacterial Biotransformation [3] | Bacterial Biotransformation [4] | Bacterial Biotransformation [5] | Bacterial Biotransformation [6] | Bacterial Biotransformation [7] | Bacterial Biotransformation [8] | Bacterial Biotransformation [9] | Bacterial Biotransformation [10] | Bacterial Biotransformation [11] | Bacterial Biotransformation [12] | Bacterial Biotransformation [13] | Bacterial Biotransformation [14] | Bacterial Biotransformation [15] | Bacterial Biotransformation [16] | Bacterial Biotransformation [17] | Bacterial Biotransformation [18] | Bacterial Biotransformation [19] | Bacterial Biotransformation [20]
CCC(COC(=O)c1cc(OC)c(OC)c(OC)c1)(c1ccccc1)N(C)C.O=C(O)/C=C\C(=O)O (stereo unspecified) | Compound metabolized | Compound metabolized | Compound NOT metabolized | Compound metabolized | Compound metabolized | Compound NOT metabolized | Compound metabolized | Compound metabolized | Compound metabolized | Compound metabolized | Compound metabolized | Compound metabolized | Compound metabolized | Compound metabolized | Compound metabolized | Compound metabolized | Compound metabolized | Compound NOT metabolized | Compound metabolized | Compound metabolized
C#C[C@]1(OC(C)=O)CC[C@H]2[C@@H]3CCC4=C[C@@H](OC(C)=O)CC[C@@H]4[C@H]3CC[C@@]21C [ETHYNODIOL DIACETATE] | Compound NOT metabolized | Compound NOT metabolized | Compound NOT metabolized | Compound NOT metabolized | Compound NOT metabolized | Compound NOT metabolized | Compound NOT metabolized | Compound NOT metabolized | Compound NOT metabolized |  | Compound NOT metabolized | Compound NOT metabolized | Compound NOT metabolized | Compound NOT metabolized | Compound NOT metabolized |  | Compound NOT metabolized | Compound NOT metabolized | Compound NOT metabolized | Compound NOT metabolized
O=C1CC[C@@H](C(=O)N2CSC[C@H]2C(=O)O)N1 [PIDOTIMOD] ([pGlu]-[Thz]-OH) | Compound NOT metabolized | Compound NOT metabolized | Compound NOT metabolized | Compound NOT metabolized | Compound metabolized | Compound NOT metabolized | Compound NOT metabolized | Compound NOT metabolized | Compound NOT metabolized | Compound metabolized | Compound NOT metabolized | Compound NOT metabolized | Compound NOT metabolized | Compound NOT metabolized | Compound metabolized | Compound NOT metabolized | Compound NOT metabolized | Compound NOT metabolized | Compound NOT metabolized | Compound metabolized
CCN(C)C(=O)Oc1cccc([C@H](C)N(C)C)c1.O=C(O)C(O)C(O)C(=O)O [RIVASTIGMINE TARTRATE] | Compound NOT metabolized | Compound NOT metabolized | Compound NOT metabolized | Compound NOT metabolized | Compound NOT metabolized | Compound NOT metabolized | Compound NOT metabolized | Compound NOT metabolized | Compound NOT metabolized | Compound NOT metabolized | Compound NOT metabolized | Compound NOT metabolized | Compound NOT metabolized |  | Compound NOT metabolized | Compound NOT metabolized | Compound NOT metabolized | Compound NOT metabolized | Compound NOT metabolized | Compound NOT metabolized
CNS(=O)(=O)Cc1ccc2[nH]cc(CCN(C)C)c2c1.O=C(O)CCC(=O)O [SUMATRIPTAN SUCCINATE] | Compound NOT metabolized | Compound NOT metabolized | Compound NOT metabolized | Compound NOT metabolized | Compound NOT metabolized | Compound NOT metabolized | Compound NOT metabolized | Compound NOT metabolized | Compound NOT metabolized |  | Compound NOT metabolized | Compound NOT metabolized | Compound NOT metabolized | Compound NOT metabolized | Compound NOT metabolized | Compound NOT metabolized | Compound NOT metabolized | Compound NOT metabolized | Compound NOT metabolized | Compound NOT metabolized
CC(CN(C)C)CN1c2ccccc2CCc2ccccc21.O=C(O)/C=C\C(=O)O (stereo unspecified) [TRIMIPRAMINE MALEATE] | Compound NOT metabolized | Compound NOT metabolized | Compound NOT metabolized | Compound NOT metabolized | Compound NOT metabolized | Compound NOT metabolized | Compound NOT metabolized | Compound NOT metabolized | Compound NOT metabolized | Compound NOT metabolized | Compound NOT metabolized | Compound NOT metabolized | Compound NOT metabolized | Compound NOT metabolized | Compound NOT metabolized | Compound NOT metabolized | Compound NOT metabolized | Compound NOT metabolized | Compound NOT metabolized | 
COc1ccc(C(CN(C)C)C2(O)CCCCC2)cc1 (stereo unspecified) [VENLAFAXINE] | Compound NOT metabolized | Compound NOT metabolized | Compound NOT metabolized | Compound NOT metabolized | Compound NOT metabolized | Compound NOT metabolized | Compound NOT metabolized |  | Compound NOT metabolized | Compound NOT metabolized | Compound NOT metabolized | Compound NOT metabolized | Compound NOT metabolized | Compound NOT metabolized | Compound NOT metabolized | Compound NOT metabolized | Compound NOT metabolized | Compound NOT metabolized | Compound NOT metabolized | Compound NOT metabolized
CS(=O)(=O)O.O.O.O.O=C1Cc2cc(CCN3CCN(c4nsc5ccccc45)CC3)c(Cl)cc2N1 [ZIPRASIDONE MESYLATE] | Compound NOT metabolized | Compound NOT metabolized | Compound NOT metabolized | Compound NOT metabolized | Compound metabolized | Compound NOT metabolized | Compound NOT metabolized | Compound NOT metabolized | Compound NOT metabolized | Compound NOT metabolized | Compound NOT metabolized |  |  | Compound NOT metabolized | Compound NOT metabolized |  | Compound NOT metabolized | Compound NOT metabolized | Compound NOT metabolized | Compound NOT metabolized
